In patent US9750760B2, “Uridine diphosphate derivatives, prodrugs, compositions and methods for treating neurodegenerative disorders” (Tufts University, priority 2012, dated 2017):

How the values were obtained:
P2Y6 receptor = biological target: T1, P2Y6 receptor (Homo sapiens, UniProt Q15077); assay: Activation of P2Y6 receptor: receptor induced Ca2+ changes with fluo-4 in 1321N1 astrocytoma cells; format: cell-based
T1 construct: expressed in transfected cells; host or cells: 1321N1 human astrocytoma cell line
T1 sequence (Q15077 whole entry): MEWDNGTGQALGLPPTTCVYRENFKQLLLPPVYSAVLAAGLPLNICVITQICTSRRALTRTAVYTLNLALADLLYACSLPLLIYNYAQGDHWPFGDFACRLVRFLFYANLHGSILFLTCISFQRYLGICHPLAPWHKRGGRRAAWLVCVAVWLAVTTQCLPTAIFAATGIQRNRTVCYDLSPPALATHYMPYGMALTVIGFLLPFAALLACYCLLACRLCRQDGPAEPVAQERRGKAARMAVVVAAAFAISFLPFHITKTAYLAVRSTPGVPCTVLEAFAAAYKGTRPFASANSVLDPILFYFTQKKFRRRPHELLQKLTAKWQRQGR
Protocol: Synthetic ligands were tested for activation of P2Y6 receptor by measuring receptor induced Ca^2+ changes with the fluorescent Ca^2+ indicator fluo-4. 1321N1 human astrocytoma cell lines either expressing P2Y2, P2Y4 or P2Y6 receptors were plated into 24-well plates. Two days after plating, fluorometric measurements were made and responses of cells to a serial dilution of ligands were determined P2Y6 receptor-mediated Ca^2+ fluorescent change was determined by normalized accumulation of fluorescent change of 3 timepoints after ligand administration subtracted by value from ACSF control. Changes in fluorescent intensity were plotted corresponding to ligand concention in GraphPad. Dose-response curve and EC50 for each ligand was estimated using nonlinear curve fit and Sigmoidal dose-response analysis. […] The sodium salt of compound 5 was only effective at elevating Ca^2+ levels when applied to cells expressing P2Y6 receptors and not effective in P2Y2, or P2Y4 receptor expressing cells. The ability of the sodium salt of compound 5 to elevate Ca^2+ signals in P2Y6 expressing cells was attenuated by addition of the P2Y6 receptor antagonist MRS2578.
(§1) Synthetic ligands were tested for activation of P2Y6 receptor by measuring receptor induced Ca^2+ changes with the fluorescent Ca^2+ indicator fluo-4, and results are shown in FIG. 10(A)-(K). 1321N1 human astrocytoma cell lines either expressing P2Y2, P2Y4 or P2Y6 receptors were plated into 24-well plates. Two days after plating, fluorometric measurements were made and responses of cells to a serial dilution of ligands were determined P2Y6 receptor-mediated Ca^2+ fluorescent change was determined by normalized accumulation of fluorescent change of 3 timepoints after ligand administration subtracted by value from ACSF control. Changes in fluorescent intensity were plotted corresponding to ligand concentration in GraphPad. Dose-response curve and EC50 for each ligand was estimated using nonlinear curve fit and Sigmoidal dose-response analysis. […]

PSAPP mice [1] = assay: Plasma cytokine levels in PSAPP mice; format: in vivo, mouse
Protocol: (§2) Inflammatory cytokines were assessed in mouse plasma of both wild type and PS1/APP mice (Alzheimer's mouse model) and the impact of intraperitoneal delivery of compound 5 on circulating cytokines was assessed. Seven daily intraperitoneal injections of 1 ug/kg of compound 5 were delivered to mice. 24 hours following the final injection, plasma was collected. Wildtype, age matched littermates and PSAPP mice (>6 months of age) were treated either with vehicle (phosphate buffered saline) or vehicle containing compound.

PSAPP mice [2] = assay: Postmortem immunohistochemistry of plaque load in cortex and hippocampus; format: in vivo, mouse
Excerpt: (§3) Heterozygous mutant (K670N/M671L) APP (50% C57B6, 50% SJL) transgenic mice were crossed with heterozygous mutant (A246E) PS-1 (50% C57B6, 50% SJL) transgenic mice to generate heterozygous PSAPP transgenic mice (also referred to as PS-1/APP or PSAPP+/+ mice), which refers to animals heterozygous for the PS-1 A246E transgene and the APP K670N/M671L transgene. Non-transgenic control animals were littermates (also referred to as PSAPP_−/− mice) generated in the breeding for PSAPP transgenic animals. Mouse genotype was determined by Polymerase Chain Reaction (PCR). Both male and female mice of 6-7 months old were used for the experiments below. All animal experiments were performed in accordance with the Tufts Animal Care and Use Committee and with national regulations and policies.
Mice were perfused transcardially with 4% paraformaldehyde and 40 μm Coronal sections were collected. Sections were sequentially incubated in 0.3% H2O2 for 10 minutes, blocking solution for 2 hrs, blocking solution containing the primary antibody (rabbit anti-beta1-42; rabbit anti-beta1-40, from Chemicon International and rat anti-CD45) for 48 hours at 4° C., and blocking solution containing biotinylated antibody or fluorescently-labeled antibody for 2 hours at room temperature. Sections were visualized in a bright field microscope or a confocal microscope, and the optical density was obtained using MetaMorph software.
After repeated imaging, brains were fixed and subjected to postmortem immunohistochemistry with amyloid beta specific antibodies β1-40 and β1-42 to evaluate the plaque load (area occupied by immunostaining of plaque) in cortex and hippocampus.
PSB0474 was systemically administered to PSAPP mice via intraperitoneal injection for 2, 4 and 6 consecutive days. In one group, prior to evaluation and following to administration for 6 consecutive days, treatment was suspended for two weeks (6+2 weeks group). Brains were then fixed and plaque load was evaluated by immunostaining with the amyloid beta specific antibodies: β1-40 and β1-42. Representative images of plaque load in cortex and hippocampus from animals that received injections of PSB0474 according to the foregoing injection schedules are shown in FIG. 5(A)-(D). […] Whereas, when administration of PSB0474 was stopped for 2 weeks following six consecutive days of treatment (denoted as the 6+2 weeks group), β1-40 staining rebounded; although to a level lower than observed in mice treated with saline as a vehicle control. FIGS. 6A and 6B depict the reduction in plaque load (%) the cortex and hippocampus, respectively, in PSAPP mice after treatment with 3-phenacyl-UDP for 2, 4, or 6 consecutive days, as assayed by staining with the β1-40 antibody. FIGS. 6C-6F depict data obtained following administration of different dosages of PSB0474.
To generate these graphs showing plaque load, mice were euthanized, brain sections cut and antibodies directed against Aβ 42 were used to disclose Aβ plaques. Images were acquired digitally and an algorithm was applied to threshold the image so that plaques were isolated from the background. The algorithm then calculated the percent area of the field of view occupied by the plaques.

P2Y4 receptor = biological target: T2, P2Y4 receptor (Homo sapiens, UniProt P51582); assay: Ca2+ mobilization (fluo-4) in 1321N1 astrocytoma cells expressing P2Y4 receptor; format: cell-based; conditions: sodium salt; 1321N1 cells expressing P2Y4
T2 construct: expressed in transfected cells; host or cells: 1321N1 human astrocytoma cell line
T2 sequence (P51582 whole entry): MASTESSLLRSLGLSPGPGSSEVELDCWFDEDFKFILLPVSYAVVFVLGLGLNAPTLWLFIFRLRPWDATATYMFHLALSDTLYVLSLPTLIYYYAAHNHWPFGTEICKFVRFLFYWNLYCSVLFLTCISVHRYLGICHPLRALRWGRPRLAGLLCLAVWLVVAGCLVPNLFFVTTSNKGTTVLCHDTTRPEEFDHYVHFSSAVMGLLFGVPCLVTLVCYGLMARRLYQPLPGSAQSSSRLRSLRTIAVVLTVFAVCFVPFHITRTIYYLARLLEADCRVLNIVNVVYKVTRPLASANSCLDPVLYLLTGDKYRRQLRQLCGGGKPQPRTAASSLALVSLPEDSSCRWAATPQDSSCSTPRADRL
Protocol: as §1, with “fluo-4.” for “fluo-4, and results are shown in FIG. 10(A)-(K).”, “concention” for “concentration”
(§4) Synthetic ligands were tested for activation of P2Y6 receptor by measuring receptor induced Ca^2+ changes with the fluorescent Ca^2+ indicator fluo-4, and results are shown in FIG. 10(A)-(K). […] Two days after plating, fluorometric measurements were made and responses of cells to a serial dilution of ligands were determined P2Y6 receptor-mediated Ca^2+ fluorescent change was determined by normalized accumulation of fluorescent change of 3 timepoints after ligand administration subtracted by value from ACSF control. […]

P2Y2 receptor = biological target: T3, P2Y2 receptor (Homo sapiens, UniProt P41231); assay: Ca2+ mobilization (fluo-4) in 1321N1 astrocytoma cells expressing P2Y2 receptor; format: cell-based; conditions: sodium salt; 1321N1 cells expressing P2Y2
T3 construct: expressed in transfected cells; host or cells: 1321N1 human astrocytoma cell line
T3 sequence (P41231 whole entry): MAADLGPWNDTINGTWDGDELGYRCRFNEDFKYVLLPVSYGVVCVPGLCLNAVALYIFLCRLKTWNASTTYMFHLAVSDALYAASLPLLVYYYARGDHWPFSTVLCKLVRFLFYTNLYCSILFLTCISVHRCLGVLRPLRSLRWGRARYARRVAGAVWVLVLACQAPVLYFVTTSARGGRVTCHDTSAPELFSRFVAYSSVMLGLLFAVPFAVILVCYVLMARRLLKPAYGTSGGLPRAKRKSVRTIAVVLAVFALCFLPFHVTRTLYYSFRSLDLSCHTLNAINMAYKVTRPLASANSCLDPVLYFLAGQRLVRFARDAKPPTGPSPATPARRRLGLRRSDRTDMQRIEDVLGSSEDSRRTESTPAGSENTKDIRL
Protocol: as §1, with “fluo-4.” for “fluo-4, and results are shown in FIG. 10(A)-(K).”, “concention” for “concentration”
as §4

PSAPP mice [3] = assay: Contextual fear conditioning test (freezing behavior); format: in vivo, mouse
Protocol: On day one, animals were trained in a fear conditioning apparatus for a total of 7 minutes with a two-pairing paradigm of cue and mild foot shock (a 30-s acoustic-conditioned stimulus, 80 dB; a 2-s shock stimulus, 0.5 mA). To evaluate contextual fear learning, the animals were returned to the training context 24 hours post-training, and freezing behavior was scored for 5 minutes. Freezing behavior was monitored by MotorMonitor (Hamilton Kinder) and scored every 5 seconds.
In this study, the fear conditioning associative learning paradigm was used as a rapid cognition assay for PSAPP mice. This study allowed us to probe cognitive function with a single training day followed in 24 hours by tests for contextual and cued fear learning. Contextual fear learning is dependent upon a brain area that has been implicated as a locus for cognitive decline in AD: the hippocampus. Two pairings of CS-US for fear conditioning were followed 24 hours later by testing for contextual and cued fear learning. Previous studies have reported that PSAPP animals appear to have a selective hippocampus-dependent impairment in associative learning following two pairings of conditioned stimuli for fear conditioning.
This represents a decrease in the cognitive impairment observed in the untreated mice.

wildtype mice = assay: Plasma cytokine levels in wildtype mice; format: in vivo, mouse; conditions: wildtype animals, 1 ug/kg i.p. daily x7
Protocol: as §2

PSAPP mice [4] = assay: Two-photon in vivo imaging of methoxyX04-labeled amyloid plaques in barrel cortex; parameters: species or system mouse; conditions: vs ACSF
Excerpt: as §3
In this study, PSAPP mice were anesthetized using isoflurane and a thin-skull preparation was used to minimize the surface damage. Amyloid plaques were visualized with methoxyX04 labeling and blood plasma was labeled with Rhodamine dextran to facilitate re-localization of the same imaging area. Stack images were obtained using a two-photon system (Prairie Technologies) with excitation at 850 nm. The emission was detected by external photomultiplier tubes (525/70; DLCP 575; 607/45 nm).
Animals were anesthetized and immobilized in a stereotaxic frame. […]

PSAPP mice [5] = assay: Hippocampal long-term potentiation (LTP) recording, CA1, high-frequency stimulation; format: in vivo, mouse; conditions: acute treatment
Protocol: Hippocampal slices (350 μm thick) were prepared from 6-month-old PSAPP mice. Baseline responses were obtained every 10 seconds and Input-output (I/O) curves, paired-pulse modification and LTP were successively measured. The stimulation intensity was set to a level that gives a value of 30% of the maximum obtained. LTP were induced by high frequency stimulation (HFS, 100 pulses at 100 Hz, four times) or by theta-burst stimulation (TBS, 10 bursts at 5 Hz, repeated 10 times in 15 s intervals).
Accumulated evidence has shown that amyloid peptides naturally secreted or isolated from Alzheimer's brains impair synaptic plasticity, especially hippocampal long-term potentiation (Walsh et al., 2002). Therefore, we further performed LTP recordings in PASPP mice and investigated whether P2Y6 receptor-mediated plaque clearance affects synaptic plasticity. […] First, it was observed that LTP at the schaffer collateral synapse within the CA1 region was depressed in PSAPP mice, as compared with littermates (FIG. 8(A)).

[6] = β1-42 antibody, i.p. daily 7 days, vs vehicle

Question: O=c1ccn([C@@H]2O[C@H](COP(=O)(O)OP(=O)(O)O)C(O)[C@@H]2O)c(=O)n1Cc1noc2ccccc12 (stereo partly drawn) [compound 5] was tested. Which “elevating Ca2+ levels in cells expressing P2Y6 receptors” value (P2Y6 receptor; sodium salt, 1321N1 cells expressing P2Y6) did it give?
Answer: Its value is “effective”.

Question: What about the EC50 (P2Y6 receptor; sodium salt, Ca2+ fluorescent change, 1321N1 cells expressing P2Y6 receptor) of the same compound?
Answer: The EC50 was 12 nM.

Question: What about the “plasma IL-2 level” value (PSAPP mice [1]; 1 ug/kg i.p. daily x7) of the same compound?
Answer: Its value is “reduced”.

Question: What about the “plasma IL-7 level” value (PSAPP mice [1]; 1 ug/kg i.p. daily x7) of the same compound?
Answer: The value was “reduced”.

Question: What about the “plasma IL-9 level” value (PSAPP mice [1]; 1 ug/kg i.p. daily x7) of the same compound?
Answer: The value was “reduced”.

Question: And the “plasma IL-10 level” value (PSAPP mice [1]; 1 ug/kg i.p. daily x7)?
Answer: The value was “reduced”.

Question: And the “plasma IL-15 level” value (PSAPP mice [1]; 1 ug/kg i.p. daily x7)?
Answer: Its value is “reduced”.

Question: What about the “plasma MIG level” value (PSAPP mice [1]; 1 ug/kg i.p. daily x7) of the same compound?
Answer: Its value is “reduced”.

Question: And the “plasma MIP1α level” value (PSAPP mice [1]; 1 ug/kg i.p. daily x7)?
Answer: Its value is “reduced”.

Question: What about the “plasma IL-1β level” value (PSAPP mice [1]; 1 ug/kg i.p. daily x7, 24 hours after final injection) of the same compound?
Answer: The value was “reduced”.

Question: What about the “Aβ plaque load (%) in cortex” value (PSAPP mice [2]; [6]) of the same compound?
Answer: The value was “substantial decrease”.

Question: What about the “Aβ plaque load (%) in hippocampus” value (PSAPP mice [2]; [6]) of the same compound?
Answer: The value was “substantial decrease”.

Question: And the “elevating Ca2+ levels in P2Y4 receptor expressing cells” value (P2Y4 receptor)?
Answer: The value was “not effective”.

Question: And the “elevating Ca2+ levels in P2Y2 receptor expressing cells” value (P2Y2 receptor)?
Answer: Its value is “not effective”.

Question: What about the “freezing behavior (freezing %), contextual fear conditioning” value (PSAPP mice [3]; i.p. daily for 7 consecutive days, vs vehicle control) of the same compound?
Answer: Its value is “significantly improved”.

Question: What about the “plasma IL-2 level” value (wildtype mice) of the same compound?
Answer: Its value is “reduced”.

Question: What about the “plasma IL-10 level” value (wildtype mice) of the same compound?
Answer: The value was “reduced”.

Question: How did the β1-40 staining (PSAPP mice [2]; 6 consecutive days then stopped for 2 weeks, level still lower than saline vehicle) turn out when O=C(Cn1c(=O)ccn(C2OC(COP(=O)(O)OP(=O)(O)O)C(O)C2O)c1=O)c1ccccc1 (stereo not drawn) [PSB0474, 3-phenacyl-UDP] was run?
Answer: Its β1-40 staining is “rebounded”.

Question: What about the “effects on the efficacy endpoint (plaque load)” value (PSAPP mice [2]; higher dose of 1 mg/kg, one week daily) of the same compound?
Answer: The value was “smaller effects”.

Question: And the “immunoreactivity of β1-40 in cortex and hippocampus” value (PSAPP mice [2]; i.p. for 4 consecutive days)?
Answer: Its value is “significantly decreased”.

Question: What about the “immunoreactivity of β1-40 in cortex and hippocampus” value (PSAPP mice [2]; i.p. for 6 consecutive days) of the same compound?
Answer: Its value is “significantly decreased”.

Question: What about the “memory deficit (freezing time), contextual fear conditioning” value (PSAPP mice [3]; one week treatment with 1 ug/kg, vs vehicle) of the same compound?
Answer: Its value is “rescued the memory deficit”.

Question: With O=c1ccn([C@@H]2O[C@H](COP(=O)(O)OP(=O)(O)O)[C@@H](O)[C@H]2O)c(=O)[nH]1 [UDP, uridine diphosphate] as the compound, how does the “plaque load, day 4/day 1 ratio” value (PSAPP mice [4]; FIG. 2D) read?
Answer: Its value is “reduces”.

Question: What about the “number of plaques, day 4/day 1 ratio” value (PSAPP mice [4]; FIG. 2E) of the same compound?
Answer: The value was “reduces”.

Question: What about the “LTP (fEPSP %) at schaffer collateral synapse, CA1” value (PSAPP mice [5]; vs ACSF) of the same compound?
Answer: Its value is “significantly increased”.

Question: And the “last 15 min potentiation, field excitatory postsynaptic potential (fEPSP)” value (PSAPP mice [5]; comparable to littermates)?
Answer: Its value is “significant increase”.

Question: Which “effect of antagonist on Ca2+ signals elevated by sodium salt of compound 5” value (P2Y6 receptor; P2Y6 expressing cells, antagonist added) does the source give for S=C=Nc1cccc(NC(=S)NCCCCNC(=S)Nc2cccc(N=C=S)c2)c1 [MRS2578, reference compound] here?
Answer: Its value is “attenuated”.
